From patent US20050075269A1, “Substituted benzofuran-2-carboxamides derivatives” (priority 2001, published 2005)
Counter-ions that a name gives are not always drawn.

For `CNCCNC(=O)c1cc2cc(N3CCN(CCCCc4c[nH]c5ccc(C#N)cc45)CC3)ccc2o1` (as salt: hydrochloride) [f), N-(2-methylaminoethyl)-5-{4-[4-(5-cyano-1H-indol-3-yl)butyl]piperazin-1-yl}benzofuran-2-carboxamide], the melting point was over 233 °C.
